Assay [1] has as its system HT1080 cells. Nature of the assay: Cellular assay for IDH1m R132C inhibitors, 2-HG by LC-MS in HT1080 cells. In kind it is cell-based. The settings on record: Homo sapiens, HT-1080. Summed up:
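HT1080 cells at 5000 cells/well were treated with compound (0.2% DMSO final). After 48 h, 2-HG in the medium was measured by LC-MS. Viability was read by CellTiter-Glo luminescence at 72 h.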

The target in assay [2] is IDH1-R132 homodimer enzyme (R132H) (Homo sapiens (Human), UniProt O75874, R132H). Kind of assay: In vitro assay IDH1-R132H homodimer, NADPH depletion assay. The class given is biochemical. The protocol: (§1) The following describes the experimental procedures that can be used to obtain data on columns 3 and 6 of Table 4.
Chain of IDH1-R132 homodimer enzyme (R132H) (O75874 whole entry R132H): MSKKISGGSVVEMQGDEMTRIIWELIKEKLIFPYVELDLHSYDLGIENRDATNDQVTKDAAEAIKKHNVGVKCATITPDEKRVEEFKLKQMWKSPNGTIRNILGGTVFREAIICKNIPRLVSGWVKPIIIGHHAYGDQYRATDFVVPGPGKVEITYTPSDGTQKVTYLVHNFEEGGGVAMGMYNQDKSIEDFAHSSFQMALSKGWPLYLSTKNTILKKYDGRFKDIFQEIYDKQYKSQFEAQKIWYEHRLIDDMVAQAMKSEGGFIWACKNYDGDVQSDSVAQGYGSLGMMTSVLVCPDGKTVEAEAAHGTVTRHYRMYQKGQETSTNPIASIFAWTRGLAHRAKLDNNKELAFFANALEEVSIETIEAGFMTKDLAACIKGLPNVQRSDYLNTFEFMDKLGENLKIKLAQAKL
(§2) A test compound is prepared as 10 mM stock in DMSO and diluted to 50× final concentration in DMSO, for a 50 μl reaction mixture. IDH enzyme activity converting alpha-ketoglutarate to 2-hydroxyglutaric acid is measured using a NADPH depletion assay. In the assay the remaining cofactor is measured at the end of the reaction with the addition of a catalytic excess of diaphorase and resazurin, to generate a fluorescent signal in proportion to the amount of NADPH remaining. […] The reaction is started with the addition of 10 μl of Substrate Mix ([…], 5 mM alpha-ketoglutarate, in Assay Buffer) and the mixture is incubated for 90 minutes at room temperature.

Assay [3] concerns the target IDH1 R132C (Homo sapiens (Human), UniProt O75874, R132C). Kind of assay: In vitro assay IDH1 R132C homodimer, NADPH depletion assay. The class given is biochemical. How it is done:
as §1, §2
The concentration of NADPH and alpha-ketoglutarate in the Substrate Buffer is 20 μM and 1 mM, respectively.

The target in assay [4] is T1, IDH2 R140Q (Homo sapiens (Human), UniProt P48735, R140Q). Kind of assay: In vitro assay for IDH2m R140Q inhibitors, cofactor depletion assay, 16 hr preincubation with NADPH/NADP. In kind it is biochemical. The conditions noted are these: read-out: IDH2 R140Q 16 hr NADPH/NADP IC50; 16 hrs preincubation with enzyme, 5 uM NADPH and 750 uM NADP. The source says:
The following describes the experimental procedures used to obtain data on column 6 of Table 5.
The reaction is terminated by the addition of a second enzyme, diaphorase, and a corresponding substrate, resazurin. Diaphorase reduces resazurin to the highly fluorescent resorufin with the concomitant oxidation of NADPH to NADP, both halting the IDH2 reaction by depleting the available cofactor pool and facilitating quantitation of the amount of cofactor remaining after a specific time period through quantitative production of an easily detected fluorophore.
The test compound is then incubated for 16 hrs at room temperature with the enzyme and cofactors before starting the IDH2 reaction with the addition of 10 μl of substrate mix containing 8 mM α-KG (final concentration 1.6 mM) in the buffer described above. After a further 1 hour of incubation at room temperature, the reaction is halted and the remaining NADPH measured through conversion of resazurin to resorufin by the addition of 25 μl Stop Mix (36 μg/ml diaphorase enzyme and 60 μM resazurin; in buffer).

The target in assay [5] is IDH1 wt/IDH1 R132C heterodimer (Homo sapiens (Human), UniProt O75874, R132C). Nature of the assay: In vitro assay for IDH1m R132C inhibitors, IDH1 wt/IDH1 R132C heterodimer, NADPH depletion (diaphorase/resazurin). The class given is biochemical. The settings on record: NADPH/NADP. The protocol:
The following describes the experimental procedures that can be used to obtain data on columns 2 and 4 of Table 4 and column 2 of Table 5.
In the primary reaction, the reduction of α-KG acid to 2-HG is accompanied by a concomitant oxidation of NADPH to NADP. The amount of NADPH remaining at the end of the reaction time is measured in a secondary diaphorase/resazurin reaction in which the NADPH is consumed in a 1:1 molar ratio with the conversion of resazurin to the highly fluorescent resorufin.
The mixture of compound, enzyme, and cofactor is pre-incubated at room temperature for 1 hr prior to the addition of alpha-ketoglutarate. To perform the secondary reaction, 10 uL of 1× buffer containing 36 μg/ml diaphorase and […] resazurin is added to the primary reaction and incubated for a further 5 minutes at 25° C. Florescence is read on a Spectramax platereader at Ex 544 Em 590. Compounds or compound dilutions are prepared in 100% DMSO concentration and diluted 1:50 into the final reaction. […] IC50s are determined.
IDH1 or IDH2 wildtype (wt) and mutant heterodimers are expressed and purified by methods known in the art. For example, IDH1wt/R132m heterodimer is expressed and purified as follows. Co-expression of IDH1wt-his and IDH1R132C-flag is carried out in sf9 insect cells. Cells (25 g) are resuspended in 250 ml of 50 mM Tirs, 500 mM NaCl, pH7.4, at 4° C. with stirring. Cells are disrupted with 4 passes through an M-Y110 Micro fluidizer (Microfluidics) set to 500 psi, and then centrifuged at 22,000 rcf for 20 min at 4° C. The supernatant is harvested and loaded at 15 cm/h on a Histrap FF 5*1 ml column (GE) which is equilibrated with 50 mM Tirs, 500 mM NaCl, pH7.4. Host cell contaminants are removed by washing the column with equilibration buffer followed by equilibration buffer containing 20 mM imidazole and 60 mM imidazole to baseline. IDH1wt-his homodimer and IDH1wt-his/IDH1R132C-flag are eluted by equilibration buffer containing 250 mM imidazole. Fractions eluted by 250 mM imidazole are pooled together and loaded at 15 cm/h onto a column pre-packed with 10 ml ANTI-FLAG® M2 Affinity Gel (Sigma), the column is equilibrated with 50 mM Tris, 500 mM NaCl, pH7.4. After washing with equilibration buffer, IDH1wt-his/IDH1R132C-flag heterodimer is eluted by equilibration buffer containing flag peptide (0.2 mg/ml). Aliquots of IDH1wt-his/IDH1R132C-flag are flash frozen in liquid N2 and stored at −80° C. Same conditions are used for the purification of IDH1wt-his/IDH1R132H-flag.

Assay [6] addresses IDH1 wt/IDH1 R132H heterodimer (Homo sapiens (Human), UniProt O75874, R132H). Kind of assay: In vitro assay for IDH1m R132H inhibitors, IDH1 wt/IDH1 R132H heterodimer, NADPH depletion (diaphorase/resazurin). In kind it is biochemical. The conditions noted are these: IDH1 wt/R132H heterodimer, NADPH/NADP, not saturated; read-out: IDH1 wt/R132H NADPH/NADP IC50 not saturated. The method, boiled down: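 Purified IDH1wt-his/IDH1R132H-flag heterodimer (sf9 co-expression) pre-incubated 1 hr at room temperature with compound and NADPH before α-KG addition. Remaining NADPH read by diaphorase/resazurin conversion to fluorescent resorufin, 5 min at 25° C. Compounds diluted 1:50 from DMSO; IC50 determined.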

Assay [7] concerns the target IDH1-R132H homodimer enzyme (Homo sapiens (Human), UniProt O75874, R132H). Kind of assay: In vitro assay IDH1-R132H homodimer, NADPH depletion assay with NADPH/NADP preincubation. In kind it is biochemical. The settings on record: 5 μM NADPH and 37.5 μM NADP. The method, boiled down:
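Conversion of alpha-ketoglutarate to 2-hydroxyglutarate tracked by NADPH depletion. Reaction started with 5 mM alpha-ketoglutarate plus NADPH substrate mix (50 μl total), 60 min at room temperature. Leftover NADPH quantified via diaphorase/resazurin fluorescence.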

The subject of assay [8] is U87MG pLVX-IDH2 R140Q-neo cells. Kind of assay: U87MG pLVX-IDH2 R140Q-neo cell based assay, 2-HG by LC-MS. The settings on record: Homo sapiens, U-87 MG.
The target of assay [9] is T1, IDH2 R140Q. Kind of assay: In vitro assay for IDH2m R140Q inhibitors, cofactor depletion assay. In kind it is biochemical. The conditions noted are these: IDH2 R140Q enzyme. The method, boiled down:
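Remaining cofactor measured fluorimetrically: diaphorase/resazurin Stop Mix […], halting the reaction. Before that, mutant enzyme and compound sat 1 h at RT, then substrate mix (4 μM NADPH, 1.6 mM α-KG) was added for 16 h at RT.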

Chain of IDH1 R132C (O75874 whole entry R132C): as the sequence (O75874 whole entry R132H) above, with H132C counted along it
Chain of IDH1 wt/IDH1 R132C heterodimer (O75874 whole entry R132C): as the sequence (O75874 whole entry R132H) above, with H132C counted along it
Chain of IDH1 wt/IDH1 R132C heterodimer (O75874 whole entry, stated change not applied): as the sequence (O75874 whole entry R132H) above, with H132R counted along it
Chain of IDH1-R132H homodimer enzyme (O75874 whole entry R132H): as the sequence (O75874 whole entry R132H) above
Chain of IDH1 wt/IDH1 R132H heterodimer (O75874 whole entry R132H): as above
Chain of IDH1 wt/IDH1 R132H heterodimer (O75874 whole entry, stated change not applied): as the sequence (O75874 whole entry R132H) above, with H132R counted along it
T1 sequence (P48735 40-452 R140Q): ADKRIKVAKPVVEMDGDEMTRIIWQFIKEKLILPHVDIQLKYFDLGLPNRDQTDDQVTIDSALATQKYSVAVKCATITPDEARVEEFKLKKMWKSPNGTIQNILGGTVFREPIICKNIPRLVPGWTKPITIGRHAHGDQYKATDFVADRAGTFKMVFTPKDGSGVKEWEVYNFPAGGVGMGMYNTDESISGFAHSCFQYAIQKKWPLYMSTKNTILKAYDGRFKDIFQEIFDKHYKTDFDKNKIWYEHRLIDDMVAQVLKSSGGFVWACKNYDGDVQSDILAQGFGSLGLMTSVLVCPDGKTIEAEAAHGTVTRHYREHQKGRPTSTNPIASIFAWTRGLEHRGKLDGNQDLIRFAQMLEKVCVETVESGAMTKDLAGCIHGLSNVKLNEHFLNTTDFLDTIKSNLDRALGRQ

Turning to `C[C@H](Nc1nc(N[C@H](C)C2CC2)nc(-c2cccc(C(F)(F)F)n2)n1)C1CC1` [Compound 34], the figures for the IC50 in assay [1], in [2] and in assay [3] were < 50 nM, < 50 nM and 50 to 100 nM, respectively.

Regarding `CC(CC#N)Nc1nc(NC(C)CC#N)nc(-c2cccc(Cl)n2)n1` (stereo not shown) [Compound 271], the IC50 in assay [4], in assay [5], in assay [6] and in assay [7] was 100 to 1000 nM in each case.

With `CCCC(C)Nc1nc(N[C@H](C)C2CC2)nc(-c2cccc(C(F)(F)F)n2)n1` (stereo partly shown) [Compound 39], the IC50 in assay [1] was 50 to 100 nM; in assay [2], < 50 nM; in assay [3], 50 to 100 nM.

Consider `CC(C)(O)CNc1nc(Nc2cccc(Cl)c2)nc(-c2cccc(C(F)(F)F)n2)n1` [Compound 248], for which the IC50 in [8] was < 50 nM; in assay [9] it was 100 to 1000 nM; in [4], < 50 nM; in [5] it was 100 to 1000 nM; in assay [6] it was 50 to 100 nM.

For the compound `C[C@@H](Nc1nc(NC2C3CC4CC(C3)CC2C4)nc(-c2cccc(C(F)(F)F)n2)n1)C1CC1` (stereo partly shown) [Compound 234], the figures for the IC50 in assay [4], in [6] and in assay [7] were 100 to 1000 nM, < 50 nM and 100 to 1000 nM, respectively.

Regarding `C[C@@H](Nc1cc(NC2CCC(F)(F)CC2)nc(-c2cccc(Cl)n2)n1)C(F)(F)F` [Compound 418], the IC50 in [4] was < 50 nM; in assay [6], 50 to 100 nM.

Turning to `CC(C)(O)CNc1nc(Nc2cc(F)cc(F)c2)nc(-c2nccc(C(F)(F)F)n2)n1` [Compound 325], the IC50 in [8] was < 50 nM; in assay [9], < 50 nM; in assay [4] it was 50 to 100 nM; in assay [5] it was ≥ 1000 nM; in assay [6], > 1000 nM.

Consider `C[C@@H](Nc1nc(N[C@H](C)C2CC2)nc(-c2cccc(O)c2)n1)C1CC1` [Compound 11], for which the IC50 in assay [1] was 50 to 100 nM; in [9], < 50 nM; in [2], 100 to 1000 nM; in assay [3], 50 to 100 nM.

In the case of `CC(C)[C@H](C)Nc1nc(N[C@@H](C)C(C)C)nc(-c2cccc(C(F)(F)F)n2)n1` [Compound 17], the figures for the IC50 in assay [1], in assay [2] and in assay [3] were < 50 nM, 50 to 100 nM and 50 to 100 nM, respectively.

`CC(COC(C)C)Nc1nc(N[C@H](C)C2CC2)nc(-c2cccc(C(F)(F)F)n2)n1` (stereo partly shown) [Compound 241]: the IC50 is 50 to 100 nM in [4], 100 to 1000 nM in assay [5], < 50 nM in assay [6] and 100 to 1000 nM in assay [7].

As for `FC1(F)CC2(CC(Nc3nc(NC4CC5(C4)CC(F)(F)C5)nc(-c4cccc(Cl)n4)n3)C2)C1` [Compound 265], the IC50 in [4] is 100 to 1000 nM; in assay [5], 100 to 1000 nM; in assay [6], 100 to 1000 nM; in [7] it was > 1000 nM.

The values above are taken from patent US10028961B2, “Therapeutically active compounds and their methods of use” (AGIOS PHARMACEUTICALS, INC., priority 2013, dated 2018).
